Measurements taken from patent US20160175318A1, “COMPOSITIONS COMPRISING ANTIBACTERIAL AGENT AND TAZOBACTAM” (WOCKHARDT LIMITED, priority 2013, published 2016).
Where two headings read alike, the source gives them in different places.

What was measured:
Type in all cases: cell-based
[1] = tested on: E. cloacae M-20; test: MIC by agar dilution (CLSI) against highly resistant ESBL strain; settings: E. cloacae M-20
In short: (§1)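 Overnight cultures were diluted and spotted onto agar containing doubling dilutions of the cephalosporin, alone or with tazobactam. Growth versus no growth was scored after 16-20 h at 35±2° C in ambient air, following CLSI procedure.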

[2] = tested on: E. coli M50; test: as above
In short: as §1

[3] = tested on: E. coli 7MP; test: as above; settings: E. coli 7MP
In short: as §1

[4] = tested on: K. pneumoniae M150; test: as above
In short: as §1

[5] = tested on: E. coli B123; test: as above; settings: for Activity (MIC, method of Example 1), Table 7: E. coli B-123; for MIC: Escherichia coli, B123, E. coli B123, read-out: MIC
In short: as §1

[6] = tested on: E. coli B-89; test: as above; settings: E. coli B-89
In short: as §1

[7] = tested on: E. coli S-112; test: Quantitative drug diffusion assay (disc, zone of inhibition, CLSI); set-up: key to Interpretation of zone as per CLSI recommendations: R: Resistant; I: Intermediate; S: Sensitive (Interpretation as per CLSI recommendations, 2010)
In short: (§2)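 Diluted overnight E. coli cultures were seeded into molten agar, and 6 mm antibiotic discs containing cefepime/tazobactam or penicillin/ESBL-inhibitor combinations were applied per CLSI. Inhibition zones were read after 16-18 h at 35±2° C in ambient air.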

[8] = tested on: E. coli M-138; test: as above; set-up: key to Interpretation of zone as per CLSI recommendations: R: Resistant; I: Intermediate; S: Sensitive (Interpretation as per CLSI recommendations, 2010)
In short: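 Zone diameter read after 16-18 h, 35±2° C, ambient air, around 6 mm antibiotic-loaded discs on agar seed-inoculated with diluted overnight culture. CLSI method; cefepime/tazobactam and penicillin/ESBL-inhibitor combinations.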

[9] = tested on: E. coli M50; test: as above; set-up: key to Interpretation of zone as per CLSI recommendations: R: Resistant; I: Intermediate; S: Sensitive (Interpretation as per CLSI recommendations, 2010)
In short: as §2

[10] = tested on: E. coli 7MP; test: as above; set-up: key to Interpretation of zone as per CLSI recommendations: R: Resistant; I: Intermediate; S: Sensitive (Interpretation as per CLSI recommendations, 2010)
In short: as §2

[11] = tested on: E. coli B-123; test: as above; set-up: key to Interpretation of zone as per CLSI recommendations: R: Resistant; I: Intermediate; S: Sensitive (Interpretation as per CLSI recommendations, 2010)
In short: as §2

[12] = tested on: E. coli B-89; test: as above; set-up: key to Interpretation of zone as per CLSI recommendations: R: Resistant; I: Intermediate; S: Sensitive (Interpretation as per CLSI recommendations, 2010)
In short: as §2

[13] = ESBL inhibitor 0 mcg (antibiotic alone)
[14] = Table 5, with Tazobactam 10 mcg

Activity (MIC, method of Example 1), Table 7 ([1]; antibiotic alone): > 64 mg/L
Activity (MIC, method of Example 1), Table 7 ([1]; with Clavulanic acid 4 mcg): 16 mg/L
Activity (MIC, method of Example 1), Table 7 ([1]; with Clavulanic acid 8 mcg): 8 mg/L
Activity (MIC, method of Example 1), Table 7 ([1]; with Sulbactam 4 mcg): 32 mg/L
Activity (MIC, method of Example 1), Table 7 ([1]; with Sulbactam 8 mcg): 16 mg/L
Activity (MIC, method of Example 1), Table 7 ([1]; with Tazobactam 4 mcg): 4 mg/L
MIC ([1]; with Tazobactam 8 mcg): 4 mg/L
Activity (MIC, method of Example 1), Table 7 ([1]; with Tazobactam, (4 mcg)): 4 mg/L
MIC ([1]; Enterobacter cloacae, M20, 20 h, Tazobactam 0 mcg (antibiotic alone), read-out: MIC): > 64 mg/L
MIC ([2]; Escherichia coli, 20 h, Tazobactam 0 mcg (antibiotic alone), read-out: MIC): > 64 mg/L
MIC ([2]; with Tazobactam 4 mcg): 2 mg/L
MIC ([2]; with Tazobactam 8 mcg): 2 mg/L
Activity (MIC, method of Example 1), Table 7 ([3]; antibiotic alone): > 64 mg/L
Activity (MIC, method of Example 1), Table 7 ([3]; with Clavulanic acid 4 mcg): 16 mg/L
Activity (MIC, method of Example 1), Table 7 ([3]; with Clavulanic acid 8 mcg): 8 mg/L
Activity (MIC, method of Example 1), Table 7 ([3]; with Sulbactam 4 mcg): 16 mg/L
Activity (MIC, method of Example 1), Table 7 ([3]; with Sulbactam 8 mcg): 16 mg/L
Activity (MIC, method of Example 1), Table 7 ([3]; with Tazobactam 4 mcg): 8 mg/L
MIC ([3]; with Tazobactam 4 mcg): 8 mg/L
MIC ([3]; with Tazobactam 8 mcg): 4 mg/L
Activity (MIC, method of Example 1), Table 7 ([3]; with Tazobactam, (4 mcg)): 4 mg/L
MIC ([3]; Escherichia coli, 7MP, 20 h, Tazobactam 0 mcg (antibiotic alone), read-out: MIC): > 64 mg/L
MIC ([4]; K. pneumoniae M150, with Tazobactam 4 mcg): 4 mg/L
MIC ([4]; K. pneumoniae M150, with Tazobactam 8 mcg): 4 mg/L
MIC ([4]; Klebsiella pneumoniae, M150, K. pneumoniae M150, Tazobactam 0 mcg (antibiotic alone), read-out: MIC): > 64 mg/L
MIC ([4]; Klebsiella pneumoniae, M150, K. pneumoniae M150, with Tazobactam 4 mcg, read-out: MIC): 4 mg/L
MIC ([4]; Klebsiella pneumoniae, M150, K. pneumoniae M150, with Tazobactam 8 mcg, read-out: MIC): 4 mg/L
Activity (MIC, method of Example 1), Table 7 ([5]; antibiotic alone): > 64 mg/L
Activity (MIC, method of Example 1), Table 7 ([5]; with Clavulanic acid 4 mcg): 8 mg/L
Activity (MIC, method of Example 1), Table 7 ([5]; with Clavulanic acid 8 mcg): 8 mg/L
Activity (MIC, method of Example 1), Table 7 ([5]; with Sulbactam 4 mcg): 8 mg/L
Activity (MIC, method of Example 1), Table 7 ([5]; with Sulbactam 8 mcg): 16 mg/L
Activity (MIC, method of Example 1), Table 7 ([5]; with Tazobactam 4 mcg): 4 mg/L
Activity (MIC, method of Example 1), Table 7 ([5]; with Tazobactam, (4 mcg)): 2 mg/L
MIC ([5]; Tazobactam 0 mcg (antibiotic alone)): > 64 mg/L
MIC ([5]; with Tazobactam 4 mcg): 4 mg/L
MIC ([5]; with Tazobactam 8 mcg): 2 mg/L
MIC ([6]; with Tazobactam 8 mcg): 2 mg/L
MIC ([6]; Escherichia coli, B89, 20 h, Tazobactam 0 mcg (antibiotic alone), read-out: MIC): > 64 mg/L
Compound: CO/N=C(\C(=O)N[C@@H]1C(=O)N2C(C(=O)[O-])=C(C[N+]3(C)CCCC3)CS[C@H]12)c1csc(N)n1 [Cefepime]
Zone of Inhibition [7, 13]: 17 mm
Interpretation of zone as per CLSI recommendations ([7]; Table 5, ESBL inhibitor 0 mcg): (I)
Interpretation of zone as per CLSI recommendations [7, 14]: (S)
Zone of Inhibition ([7]; with Tazobactam 10 mcg): 20.5 mm
Zone of Inhibition [8, 13]: Nil
Interpretation of zone as per CLSI recommendations ([8]; Table 5, ESBL inhibitor 0 mcg): (R)
Interpretation of zone as per CLSI recommendations [8, 14]: (S)
Zone of Inhibition ([8]; with Tazobactam 10 mcg): 23 mm
Zone of Inhibition [9, 13]: 7.5 mm
Interpretation of zone as per CLSI recommendations ([9]; Table 5, ESBL inhibitor 0 mcg): (R)
Interpretation of zone as per CLSI recommendations [9, 14]: (S)
Zone of Inhibition ([9]; with Tazobactam 10 mcg): 24 mm
Zone of Inhibition [10, 13]: 16 mm
Interpretation of zone as per CLSI recommendations ([10]; Table 5, ESBL inhibitor 0 mcg): (I)
Interpretation of zone as per CLSI recommendations [10, 14]: (S)
Zone of Inhibition ([10]; with Tazobactam 10 mcg): 20.5 mm
Zone of Inhibition [11, 13]: 8 mm
Interpretation of zone as per CLSI recommendations ([11]; Table 5, ESBL inhibitor 0 mcg): (R)
Interpretation of zone as per CLSI recommendations [11, 14]: (S)
Zone of Inhibition ([11]; with Tazobactam 10 mcg): 20 mm
Zone of Inhibition [12, 13]: 8 mm
Interpretation of zone as per CLSI recommendations ([12]; Table 5, ESBL inhibitor 0 mcg): (R)
Interpretation of zone as per CLSI recommendations [12, 14]: (S)
Zone of Inhibition ([12]; with Tazobactam 10 mcg): 20 mm
